US10925923B2, “Peptide having anti-inflammatory activity, and use thereof” (CAREGEN CO., LTD., priority 2016, dated 2021)
Where no end group is shown, it is not given here.

Columns and labels:
TNF-α [1] = assay: TNF-α RT-PCR in LPS-stimulated splenocytes; type: cell-based, mice; settings: mouse splenocytes, LPS stimulator, peptide 0.2, 2, 20 ug/ml
Method: [The procedure below names another target; the source lists this target under the same test.] After 6-7-week-old mice were sacrificed to obtain spleen, the spleen was crushed using a cell filter, and centrifuged with serum-free RPMI 1640 medium. The upper layer was discarded, and for removal of red blood cells (RBC), RBC lysis buffer was used.
RBC was removed twice, followed by washing with serum-free RPMI1640 medium, and then an appropriate amount of serum-free RPMI1640 medium was added.
The cells were counted, and seeded in 96-well plate (1×10^6 cells/well) and 24-well plate (1×10^7 cells/dish). The next day, the cells were treated with respective peptide samples (0.2, 2, 20 ug/ml) and the stimulator LPS. Here, the experiment was performed by adjusting the time point.
Total RNA was extracted using Easy Blue (Intron). For synthesis of single-stranded DNA from RNA, RT premix (Intron) was used, and 3 ug of RNA, 2 ug of random hexamer, and DEPC-treated water were added thereto to reach a total volume of 20 ul, followed by reaction for 5 minutes at 65° C. and 1 hour at 42° C. Heating was again conducted at 95° C. for 5 minutes to prepare cDNA.
PCR was conducted by mixing 3 ul of cDNA and 10 pmole primers specific to CGI 58 gene with PCR premix (Intron). PCR conditions were: 94° C. for 30 seconds, 55-56° C. for 30 seconds, and 72° C. for 30 seconds. Genes were analyzed in the conditions in which the PCR results could be exponentially amplified. 5 ul of PCR product was obtained, electrophoresed on 1% agarose gel, and stained with ethidium bromide.

IL-2 = IL-2 RT-PCR in LPS-stimulated splenocytes; type: cell-based, mice; settings: mouse splenocytes, LPS stimulator, peptide 0.2, 2, 20 ug/ml
COX2 = assay: Western blot of COX2 in splenocytes; type: cell-based, mice; settings: peptide 0.2-20 ug/ml, 24 hours
Method: The splenocytes obtained in example 1 were seeded in 24-well plate at cell density of 1×10^7 cells/well. Then, after incubation overnight, the cells were treated with the peptides of SEQ ID NO: 1, SEQ ID NO: 2 and SEQ ID NO: 3 with different concentrations (0.2-20 ug/ml), followed by incubation in an incubator at 37° C. for 24 hours, and then the cells were treated with cell lysis buffer to secure lysate, followed by protein quantification. Then, western blotting with respect to the inflammation inducing factor COX2 was conducted, and the results are shown in FIGS. 2a to 2f.

TNF-α [2] = assay: ELISA (splenocytes), TNF-α secretion; type: cell-based, mice; settings: LPS stimulator, 48 hours
Method: (§1) The splenocytes treated with the peptide samples and the stimulator LPS in example 1 were incubated for 48 hours, and then the culture media were collected. The obtained media were subjected to an experiment using an ELISA kit (R&D system) for cytokines (TNF-α and INF-γ) to be investigated.

INF-γ = assay: ELISA (splenocytes), INF-γ secretion; type: cell-based, mice; settings: LPS stimulator, 48 hours
Method: as §1

TNF-α [3] = assay: ELISA (Raw264.7 cells), TNF-α secretion; type: cell-based; settings: pre-treated at 0.2, 2, 20 ug/ml, then LPS, 24 hours
Method: Raw264.7 cells were seeded at 1×10^6 cells/48-well, and incubated overnight. The cells were pre-treated with samples to be investigated at 0.2, 2, and 20 ug/ml, and after 30 minutes, the cells were treated with LPS. Incubation was conducted at the scheduled time point. After 24 hours, the culture media were collected, and the obtained media were subjected to an experiment using an ELISA kit (R&D system) for cytokine (TNF-α) to be investigated.

Raw264.7 cells = assay: FACS intracellular ROS assay (DCF-DA); type: cell-based; settings: pre-treated at 1, 10, 50 ug/ml, then LPS
Method: Raw264.7 cells were seeded at 1×10^6 cells/6-well, and incubated overnight. The cells were pre-treated with samples to be investigated at 1, 10, and 50 ug/ml, and after 30 minutes, the cells were treated with LPS. The cells were incubated according to the scheduled time point, and then 30 minutes after the treatment with DCF-DH, the oxidation activity was measured by the degree of fluorescence using FACS.

CD3+ and CD25+ cells = assay: Activation T cell analysis (FACS), CD3 and CD25 markers; type: cell-based, mice; settings: splenocytes, LPS stimulator, 24 hours
Method: The cells were treated with the peptide samples and the stimulator LPS as described in example 1, and after 24 hours, the cells were treated with antibody (CD3 and CD25) activation T cell markers for 30 minutes, followed by washing twice with PBS, and then FACS was conducted.

| Substance | expression of TNF-α (RT-PCR) (TNF-α [1]) | expression of IL-2 (RT-PCR) (IL-2) | expression of COX2 (western blot) (COX2) | secretion of TNF-α in splenocytes (ELISA) (TNF-α [2]) | secretion of INF-γ in splenocytes (ELISA) (INF-γ) | secretion of TNF-α in RAW264.7 cells (ELISA) (TNF-α [3]) | ROS production (Raw264.7 cells) | CD3+ and CD25+ cells (FACS) (CD3+ and CD25+ cells) |
| --- | --- | --- | --- | --- | --- | --- | --- | --- |
| Thr-Met-Arg-Asp (TMRD) [SEQ ID NO: 1] | tend to decrease | tend to decrease | reduced | decreased | decreased | tended to decrease | reduced | decreased |
| Asp-Asn-Cys-Leu-Arg (DNCLR) [SEQ ID NO: 2] | tend to decrease | tend to decrease | reduced | decreased | decreased | tended to decrease | reduced | decreased |
| GVQHQASPY [SEQ ID NO: 3] | tend to decrease | tend to decrease | reduced | – | – | decreased | reduced | decreased |
